For one experiment, the target named is Cathepsin D (Cat D) (Homo sapiens (Human), UniProt P07339). Kind of experiment: In vitro enzymatic Cathepsin D (Cat D) FRET assay. The experiment is classed as biochemical. The conditions noted are these: read-out: CatD IC50.
Experiment [1] addresses Beta Secretase enzyme (BACE) (Homo sapiens (Human), UniProt P56817). Briefly: In vitro enzymatic BACE FRET assay. The experiment is classed as biochemical. Conditions: read-out: BACE1 Enzyme assay IC50.
For another experiment, the target named is BACE (Homo sapiens (Human), UniProt P56817). Briefly: In vitro BACE cell-based assay (Aβ40 in conditioned medium, sandwich ELISA). Background: An ELISA detects its analyte on a solid surface through an enzyme-linked reagent.
Chain of BACE (P56817 46-501, species assumed): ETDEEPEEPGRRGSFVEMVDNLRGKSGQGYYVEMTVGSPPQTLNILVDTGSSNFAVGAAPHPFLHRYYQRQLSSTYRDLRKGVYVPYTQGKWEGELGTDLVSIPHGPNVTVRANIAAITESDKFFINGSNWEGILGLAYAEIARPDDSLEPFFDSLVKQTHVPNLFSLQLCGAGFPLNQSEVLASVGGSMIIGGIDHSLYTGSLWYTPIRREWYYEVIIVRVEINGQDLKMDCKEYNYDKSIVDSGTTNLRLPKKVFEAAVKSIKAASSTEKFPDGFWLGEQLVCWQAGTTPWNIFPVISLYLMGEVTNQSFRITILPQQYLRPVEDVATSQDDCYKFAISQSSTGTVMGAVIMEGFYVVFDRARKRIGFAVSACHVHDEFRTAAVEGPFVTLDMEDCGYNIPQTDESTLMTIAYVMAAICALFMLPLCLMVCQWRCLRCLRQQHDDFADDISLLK

Broadly, the pIC50 is −log10 of the IC50, conventionally taken in molar units. One may read the IC50 as the concentration that inhibits the measured activity by half. Read a high IC50 as weaker potency.

pIC50: −log10 of the molar value.

Chain of Cathepsin D (Cat D) (P07339 65-412, species assumed): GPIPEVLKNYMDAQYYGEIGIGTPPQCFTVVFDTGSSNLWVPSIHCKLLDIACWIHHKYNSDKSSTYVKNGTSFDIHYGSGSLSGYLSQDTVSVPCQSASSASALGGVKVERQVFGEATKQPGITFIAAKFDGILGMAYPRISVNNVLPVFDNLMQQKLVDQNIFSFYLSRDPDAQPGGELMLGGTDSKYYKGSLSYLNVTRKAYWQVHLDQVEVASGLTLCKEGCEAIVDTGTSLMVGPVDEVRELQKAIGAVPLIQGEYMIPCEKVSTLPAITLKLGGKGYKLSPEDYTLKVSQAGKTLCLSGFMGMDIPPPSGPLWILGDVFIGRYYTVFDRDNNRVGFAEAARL
Chain of Beta Secretase enzyme (BACE) (P56817 46-501): as the sequence (P56817 46-501, species assumed) above

On to `C#CCOc1cnc(C(=O)Nc2ccc(Cl)c([C@@]3(C(F)F)N=C(N)O[C@@H]4C[C@@H]43)c2)cn1` [Example 221, N-(3-((1R,5S,6R)-3-amino-5-(difluoromethyl)-2-oxa-4-azabicyclo[4.1.0]hept-3-en-5-yl)-4-chlorophenyl)-5-(prop-2-yn-1-yloxy)pyrazine-2-carboxamide], for which the pIC50 at Cathepsin D (Cat D) is 4.29; in experiment [1], 8.57. In addition, 0.0033 µM corresponded to half-maximal inhibition against BACE (IC50).
For the molecule `Cc1cc(C#N)cnc1C(=O)Nc1ccc(Cl)c([C@@]2(C(F)F)N=C(N)O[C@@H]3C[C@@H]32)c1` [Example 223, N-(3-((1R,5S,6R)-3-amino-5-(difluoromethyl)-2-oxa-4-azabicyclo[4.1.0]hept-3-en-5-yl)-4-chlorophenyl)-5-cyano-3-methylpicolinamide], the results for the negative-log IC50 (pIC50) (on Cathepsin D (Cat D); in experiment [1]) were 3.27 and 7.74, respectively. The molecule also displayed an IC50 on BACE of 0.0314 µM.
Take `NC1=N[C@@](c2cc(NC(=O)c3nn(C(F)F)cc3Cl)ccc2Cl)(C(F)F)[C@H]2C[C@H]2O1` [Example 224, N-(3-((1R,5S,6R)-3-amino-5-(difluoromethyl)-2-oxa-4-azabicyclo[4.1.0]hept-3-en-5-yl)-4-chlorophenyl)-4-chloro-1-(difluoromethyl)-1H-pyrazole-3-carboxamide]: the pIC50 is 3.29 on Cathepsin D (Cat D) and 7.98 in experiment [1]. At BACE, the IC50 was determined as 0.0252 µM.
For `COc1cnc(C(=O)Nc2ccc(Cl)c([C@@]3(C(F)F)N=C(N)O[C@@H]4C[C@@H]43)c2)cn1` [Example 226, N-(3-((1R,5S,6R)-3-amino-5-(difluoromethyl)-2-oxa-4-azabicyclo[4.1.0]hept-3-en-5-yl)-4-chlorophenyl)-5-methoxypyrazine-2-carboxamide], in that order: 3.44, 7.05 and 0.0394 µM.
For `NC1=N[C@@](CF)(c2cc(NC(=O)c3ccc(Cl)cn3)cnc2F)[C@@H]2C[C@@H]2O1` [Example 230, N-(5-((1S,5R,6S)-3-amino-5-(fluoromethyl)-2-oxa-4-azabicyclo[4.1.0]hept-3-en-5-yl)-6-fluoropyridin-3-yl)-5-chloropicolinamide], in that order: less than 3.40, 4.92 and 2.23 µM.
Consider `NC1=N[C@](CF)(c2cc(NC(=O)c3ccc(Cl)cn3)cnc2F)[C@H]2C[C@H]2O1` [Example 231, N-(5-((1R,5S,6R)-3-amino-5-(fluoromethyl)-2-oxa-4-azabicyclo[4.1.0]hept-3-en-5-yl)-6-fluoropyridin-3-yl)-5-chloropicolinamide], for which the pIC50 is 3.41 on Cathepsin D (Cat D) and 6.78 in experiment [1]. Besides, the midpoint of inhibition at BACE, the IC50, lay at 0.0277 µM.
For `C#CCOc1ccc(C(=O)Nc2ccc(F)c([C@@]3(C(F)F)N=C(N)O[C@@H]4C[C@@H]43)c2)nc1` [Example 232, N-(3-((1R,5S,6R)-3-amino-5-(difluoromethyl)-2-oxa-4-azabicyclo[4.1.0]hept-3-en-5-yl)-4-fluorophenyl)-5-(prop-2-yn-1-yloxy)picolinamide], in that order: 3.23, 7.79 and 0.0418 µM.
As to `CC#CCOc1ccc(C(=O)Nc2ccc(F)c([C@@]3(C(F)F)N=C(N)O[C@@H]4C[C@@H]43)c2)nc1` [Example 233, N-(3-((1R,5S,6R)-3-amino-5-(difluoromethyl)-2-oxa-4-azabicyclo[4.1.0]hept-3-en-5-yl)-4-fluorophenyl)-5-(but-2-yn-1-yloxy)picolinamide], the pIC50 was 3.61 on Cathepsin D (Cat D) and 8.24 in experiment [1]. Further, the midpoint of inhibition against BACE, the IC50, lay at 0.024 µM.
`Cc1cc(C(F)F)cnc1C(=O)Nc1cnc(F)c([C@@]2(CF)N=C(N)O[C@@H]3C[C@@H]32)c1` [Example 234, N-(5-((1R,5S,6R)-3-amino-5-(fluoromethyl)-2-oxa-4-azabicyclo[4.1.0]hept-3-en-5-yl)-6-fluoropyridin-3-yl)-5-(difluoromethyl)-3-methylpicolinamide]: the results for the pIC50 (at Cathepsin D (Cat D); in experiment [1]) were less than 4.83 and 6.55, respectively. The IC50 on BACE was determined as 0.0596 µM.
For the molecule `NC1=N[C@](CF)(c2cc(NC(=O)c3ccc(Br)cn3)cnc2F)[C@H]2C[C@H]2O1` [Example 235, N-(5-((1R,5S,6R)-3-amino-5-(fluoromethyl)-2-oxa-4-azabicyclo[4.1.0]hept-3-en-5-yl)-6-fluoropyridin-3-yl)-5-bromopicolinamide], the figures for the pIC50 (at Cathepsin D (Cat D); in experiment [1]) were 2.74 and 6.90, respectively. On BACE, 0.0188 µM corresponded to half-maximal inhibition (IC50).
For `NC1=N[C@@](c2cc(NC(=O)c3ccc(OCC(F)(F)F)cn3)ccc2F)(C(F)F)[C@H]2C[C@H]2O1` [Example 236, N-(3-((1R,5S,6R)-3-amino-5-(difluoromethyl)-2-oxa-4-azabicyclo[4.1.0]hept-3-en-5-yl)-4-fluorophenyl)-5-(2,2,2-trifluoroethoxy) picolinamide], in that order: 2.37, 6.98 and 0.296 µM.
Consider `NC1=N[C@@](c2cc(NC(=O)C3CCCCC3)ccc2F)(C(F)F)[C@H]2C[C@H]2O1` [Example 239, N-(3-((1R,5S,6R)-3-amino-5-(difluoromethyl)-2-oxa-4-azabicyclo[4.1.0]hept-3-en-5-yl)-4-fluorophenyl) cyclohexanecarboxamide], for which the pIC50 was less than 3.40 at Cathepsin D (Cat D) and less than 4.40 in experiment [1]. The 50% inhibitory concentration (IC50) on BACE is more than 15.6 µM.
For `COCC(=O)Nc1ccc(F)c([C@@]2(C(F)F)N=C(N)O[C@@H]3C[C@@H]32)c1` [Example 240, N-(3-((1R,5S,6R)-3-amino-5-(difluoromethyl)-2-oxa-4-azabicyclo[4.1.0]hept-3-en-5-yl)-4-fluorophenyl)-2-methoxyacetamide], in that order: 4.32, 6.09 and 0.712 µM.
For `NC1=N[C@@](c2cc(NC(=O)CC3CCCCC3)ccc2F)(C(F)F)[C@H]2C[C@H]2O1` [Example 241, N-(3-((1R,5S,6R)-3-amino-5-(difluoromethyl)-2-oxa-4-azabicyclo[4.1.0]hept-3-en-5-yl)-4-fluorophenyl)-2-cyclohexylacetamide], in that order: less than 3.40, less than 4.40 and more than 15.6 µM.
For `NC1=N[C@@](c2cc(NC(=O)C3CCOCC3)ccc2F)(C(F)F)[C@H]2C[C@H]2O1` [Example 242], in that order: 2.72, less than 4.40 and more than 15.6 µM.
For the molecule `NC1=N[C@@](c2cc(NC(=O)C3=CCCCC3)ccc2F)(C(F)F)[C@H]2C[C@H]2O1` [Example 243, N-(3-((1R,5S,6R)-3-amino-5-(difluoromethyl)-2-oxa-4-azabicyclo[4.1.0]hept-3-en-5-yl)-4-fluorophenyl)cyclohex-1-enecarboxamide], the pIC50 at Cathepsin D (Cat D) is 2.99; in experiment [1], 4.61. Moreover, it took 4.07 µM to reach half-maximal inhibition at BACE (IC50).
Consider `NC1=N[C@@](c2cc(NC(=O)C3(c4ccc(Cl)cc4)CC3)ccc2F)(C(F)F)[C@H]2C[C@H]2O1` [Example 245, N-(3-((1R,5S,6R)-3-amino-5-(difluoromethyl)-2-oxa-4-azabicyclo[4.1.0]hept-3-en-5-yl)-4-fluorophenyl)-1-(4-chlorophenyl) cyclopropanecarboxamide], for which the figures for the pIC50 (on Cathepsin D (Cat D); in experiment [1]) were 3.35 and less than 4.40, respectively. Further, the IC50 at BACE was more than 15.6 µM.

For the origin of these results see US9085576B2 (AMGEN INC., priority 2013, dated 2015).
